Source: patent US20150246938A1, “NOVEL OLEFIN DERIVATIVE” (SHIONOGI & CO., LTD., priority 2011, published 2015)

These compounds were tested against T1, recombinant human ACC2 (Homo sapiens, UniProt O00763) (assay: Measurement of inhibitory activity on human ACC2 (MALDI-TOF MS, acetyl CoA to malonyl CoA conversion)). Details: inhibition activity on human ACC2, Table 82; read-out: IC50.
T1 construct: a cDNA encoding human ACC2 (27-2458) was cloned from human kidney cDNA library (Clontech); His-tag (N); made in house; host or cells: Sf-9 insect cells (Bac-to-Bac baculovirus)
T1 sequence (O00763 27-2458): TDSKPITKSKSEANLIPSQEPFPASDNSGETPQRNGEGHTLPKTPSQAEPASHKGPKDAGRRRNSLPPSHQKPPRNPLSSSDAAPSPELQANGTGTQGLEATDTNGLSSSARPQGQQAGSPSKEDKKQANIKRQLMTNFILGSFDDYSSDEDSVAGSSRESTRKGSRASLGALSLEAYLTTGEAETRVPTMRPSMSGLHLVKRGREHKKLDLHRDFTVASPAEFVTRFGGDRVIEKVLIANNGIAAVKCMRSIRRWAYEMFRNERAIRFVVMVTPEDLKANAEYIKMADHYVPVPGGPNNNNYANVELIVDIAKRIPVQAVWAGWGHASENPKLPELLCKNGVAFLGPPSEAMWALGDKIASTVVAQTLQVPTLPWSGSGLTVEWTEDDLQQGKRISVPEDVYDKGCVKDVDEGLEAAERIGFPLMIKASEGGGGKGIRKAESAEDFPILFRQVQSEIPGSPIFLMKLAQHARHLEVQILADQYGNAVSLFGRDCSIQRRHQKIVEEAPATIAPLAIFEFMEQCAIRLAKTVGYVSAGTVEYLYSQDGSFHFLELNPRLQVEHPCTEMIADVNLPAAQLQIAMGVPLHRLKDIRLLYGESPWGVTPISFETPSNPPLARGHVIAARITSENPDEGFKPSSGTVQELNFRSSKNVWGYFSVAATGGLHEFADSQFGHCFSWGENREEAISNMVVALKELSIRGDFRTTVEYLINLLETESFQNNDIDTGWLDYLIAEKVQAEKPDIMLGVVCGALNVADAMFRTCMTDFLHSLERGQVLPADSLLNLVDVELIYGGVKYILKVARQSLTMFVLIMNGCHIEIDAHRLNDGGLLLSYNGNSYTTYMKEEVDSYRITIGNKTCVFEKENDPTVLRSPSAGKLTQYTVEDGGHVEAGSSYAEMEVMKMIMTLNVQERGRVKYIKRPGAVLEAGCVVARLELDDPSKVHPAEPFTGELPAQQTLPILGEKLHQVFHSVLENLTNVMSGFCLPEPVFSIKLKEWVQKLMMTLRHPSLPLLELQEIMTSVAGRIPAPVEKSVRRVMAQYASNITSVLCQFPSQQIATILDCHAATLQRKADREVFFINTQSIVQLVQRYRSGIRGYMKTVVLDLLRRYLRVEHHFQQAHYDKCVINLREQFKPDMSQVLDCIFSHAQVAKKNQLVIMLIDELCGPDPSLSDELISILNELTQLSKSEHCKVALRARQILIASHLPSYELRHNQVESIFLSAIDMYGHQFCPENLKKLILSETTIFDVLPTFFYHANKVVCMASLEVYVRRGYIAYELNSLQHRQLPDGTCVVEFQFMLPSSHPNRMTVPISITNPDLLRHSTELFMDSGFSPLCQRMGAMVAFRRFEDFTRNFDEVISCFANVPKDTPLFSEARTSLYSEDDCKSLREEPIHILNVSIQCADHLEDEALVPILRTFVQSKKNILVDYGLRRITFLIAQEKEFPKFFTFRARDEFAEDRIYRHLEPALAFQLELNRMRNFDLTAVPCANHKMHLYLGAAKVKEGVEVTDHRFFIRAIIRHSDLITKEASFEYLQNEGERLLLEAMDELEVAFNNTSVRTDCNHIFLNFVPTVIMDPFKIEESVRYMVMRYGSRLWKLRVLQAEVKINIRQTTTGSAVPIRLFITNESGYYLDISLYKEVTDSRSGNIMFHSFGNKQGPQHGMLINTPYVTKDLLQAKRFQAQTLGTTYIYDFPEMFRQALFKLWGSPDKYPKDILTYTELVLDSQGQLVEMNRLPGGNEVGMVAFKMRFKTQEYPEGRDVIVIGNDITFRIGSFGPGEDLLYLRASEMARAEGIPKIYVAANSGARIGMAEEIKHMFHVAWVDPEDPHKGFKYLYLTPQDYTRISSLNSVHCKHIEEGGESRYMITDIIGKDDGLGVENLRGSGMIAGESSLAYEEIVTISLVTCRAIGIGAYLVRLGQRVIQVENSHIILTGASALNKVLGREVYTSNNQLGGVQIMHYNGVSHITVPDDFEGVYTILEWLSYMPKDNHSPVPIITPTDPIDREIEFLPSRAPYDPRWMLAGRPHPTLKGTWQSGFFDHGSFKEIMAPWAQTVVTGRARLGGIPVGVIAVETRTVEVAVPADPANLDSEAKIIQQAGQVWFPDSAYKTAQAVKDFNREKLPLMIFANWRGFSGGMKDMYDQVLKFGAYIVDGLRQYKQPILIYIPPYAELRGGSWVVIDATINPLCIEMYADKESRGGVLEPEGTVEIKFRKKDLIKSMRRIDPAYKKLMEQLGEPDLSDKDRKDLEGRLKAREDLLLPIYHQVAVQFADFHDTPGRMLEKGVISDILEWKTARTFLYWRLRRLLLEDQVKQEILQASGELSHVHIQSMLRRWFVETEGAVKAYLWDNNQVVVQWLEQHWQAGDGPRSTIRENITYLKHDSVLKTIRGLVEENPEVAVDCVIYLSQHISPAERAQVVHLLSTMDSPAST
Assay type: biochemical

IC50 [nM] | SMILES
490 | CCCc1ccc(Oc2ccc(/C=C/[C@H](C)NC(C)=O)cn2)c(C)n1 [Compound I-322]
960 | CCCc1cc(C)c(Oc2ccc(/C=C/[C@H](C)NC(C)=O)cn2)cn1 [Compound I-323]
170 | CCCc1ccc(Oc2ncc(/C=C/[C@H](C)NC(C)=O)cn2)cc1Cl [Compound I-324]
3900 | CCCc1cccc(Oc2ccc(/C=C/[C@H](C)NC(C)=O)cn2)n1 [Compound I-330]
92 | CC(=O)N[C@@H](C)/C=C/c1ccc(Oc2ccc(C(C)F)cc2Cl)nc1 (stereo partly shown) [Compound I-332]
2000 | CCCc1ccc(Oc2ccc(/C=C/[C@H](C)NC(C)=O)cn2)nc1 [Compound I-336]
23 | CCCCc1ccc(Oc2ccc(/C=C/[C@H](C)NC(C)=O)cn2)c(Cl)c1 [Compound I-337]
91 | CCc1ccc(Oc2ccc(/C=C/[C@H](C)NC(C)=O)cn2)c(Cl)c1 [Compound I-339]
230 | CCC(O)c1ccc(Oc2ccc(/C=C/[C@H](C)NC(C)=O)cn2)c(Cl)c1 (stereo partly shown) [Compound I-359]
9.1 | CCSc1ccc(Oc2ccc(/C=C/[C@H](C)NC(C)=O)cn2)c(Cl)c1 [Compound I-360]
36 | CCOc1cc(F)c(Oc2ccc(/C=C/[C@H](C)NC(C)=O)cn2)c(Cl)c1 [Compound I-361]
350 | CCS(=O)(=O)c1ccc(Oc2ccc(/C=C/[C@H](C)NC(C)=O)cn2)c(Cl)c1 [Compound I-362]
29 | CC(=O)N[C@@H](C)/C=C/c1ccc(Oc2ccc(CC(C)C)cc2Cl)nc1 [Compound I-363]
13 | CC(=O)N[C@@H](C)/C=C/c1ccc(Oc2ccc(SCC(C)C)cc2Cl)nc1 [Compound I-364]
110 | CCCc1ccc(Oc2ccc(/C=C/[C@H](C)NC(C)=O)cc2)nc1 [Compound I-368]
280 | CCCc1ncc(Oc2ccc(/C=C/[C@H](C)NC(C)=O)cn2)cc1C [Compound I-370]
60 | CC(=O)N[C@@H](C)/C=C/c1ccc(Oc2ccc(CC(C)(C)C)cc2Cl)nc1 [Compound I-371]
33 | CCCc1cc(F)c(Oc2ccc(/C=C/[C@H](C)NC(C)=O)cn2)c(Cl)c1 [Compound I-372]
25 | CCC(F)c1ccc(Oc2ccc(/C=C/[C@H](C)NC(C)=O)cn2)c(Cl)c1 (stereo partly shown) [Compound I-373]

Continued, compound first:

SMILES | IC50 [nM]
CCNC(=O)c1cc(C(=O)N[C@@H](C)/C=C/c2cnn(Cc3ccc(OCC4CC4)cc3F)c2)ccn1 [Compound I-318] | 67
CCNC(=O)c1cc(C(=O)N[C@@H](C)/C=C/c2cnn(Cc3c(F)cc(OCC4CC4)cc3F)c2)ccn1 [Compound I-319] | 51
CCNC(=O)c1cc(C(=O)N[C@@H](C)/C=C/c2cnn(Cc3c(Cl)cc(OCC4CC4)cc3Cl)c2)ccn1 [Compound I-321] | 29
CC(=O)N[C@@H](C)/C=C/c1ccc(Oc2ccc(-c3ccccn3)cc2Cl)nc1 [Compound I-325] | 120
CC(=O)N[C@@H](C)/C=C/c1ccc(Oc2ccc(-c3cccnc3)cc2Cl)nc1 [Compound I-326] | 440
CC(=O)N[C@@H](C)/C=C/c1ccc(Oc2ccc(C(C)=O)cc2Cl)nc1 [Compound I-327] | 340
CC(=O)N[C@@H](C)/C=C/c1ccc(Oc2ccc(C(C)(F)F)cc2Cl)nc1 [Compound I-328] | 35
CC(=O)N[C@@H](C)/C=C/c1ccc(Oc2ccc(C(C)O)cc2Cl)nc1 (stereo partly shown) [Compound I-329] | 1100
CC(=O)N[C@@H](C)/C=C/c1ccc(Oc2ccc(OS(=O)(=O)C(F)(F)F)cc2Cl)nc1 [Compound I-331] | 130
CO/N=C(\C)c1ccc(Oc2ccc(/C=C/[C@H](C)NC(C)=O)cn2)c(Cl)c1 [Compound I-333] | 180
CCOc1ccc(Oc2ncc(/C=C/[C@H](C)NC(C)=O)cc2Cl)c(Cl)c1 [Compound I-334] | 47
CC(=O)N[C@@H](C)/C=C/c1cnc(Oc2ccc(OCC3CC3)cc2Cl)c(Cl)c1 [Compound I-335] | 15
CC(=O)N[C@@H](C)/C=C/c1ccc(Oc2ccc(Cl)c(Cl)c2)nc1 [Compound I-338] | 33
CC(=O)N[C@@H](C)/C=C/c1cnc(Oc2ccc(OCC3CC3)cc2Cl)n1C [Compound I-341] | 450
CC(=O)N[C@@H](C)/C=C/c1ccc(Oc2ccc(-c3ccccc3C)cc2Cl)nc1 [Compound I-342] | 120
CC(=O)N[C@@H](C)/C=C/c1ccc(Oc2ccc(-c3cccc(C)c3)cc2Cl)nc1 [Compound I-343] | 46
CC(=O)N[C@@H](C)/C=C/c1ccc(Oc2ccc(-c3ccc(C)cc3)cc2Cl)nc1 [Compound I-344] | 51
CC(=O)N[C@@H](C)/C=C/c1ccc(Oc2ccc(-c3ccc(C#N)cc3)cc2Cl)nc1 [Compound I-345] | 52
CC(=O)N[C@@H](C)/C=C/c1ccc(Oc2ccc(-c3cccc(C#N)c3)cc2Cl)nc1 [Compound I-346] | 440
CC(=O)N[C@@H](C)/C=C/c1ccc(Oc2ccc(-c3ccccc3C#N)cc2Cl)nc1 [Compound I-347] | 300

SMILES | IC50 [nM]
COc1ccc(-c2ccc(Oc3ccc(/C=C/[C@H](C)NC(C)=O)cn3)c(Cl)c2)cn1 [Compound I-348] | 210
CC(=O)N[C@@H](C)/C=C/c1ccc(Oc2ccc(-c3cnoc3)cc2Cl)nc1 [Compound I-349] | 6600
CC(=O)N[C@@H](C)/C=C/c1ccc(Oc2ccc(C3=CCCCC3)cc2Cl)nc1 [Compound I-350] | 18
CC(=O)N[C@@H](C)/C=C/c1ccc(Oc2ccc(C3=CCCC3)cc2Cl)nc1 [Compound I-351] | 42
CC(=O)N[C@@H](C)/C=C/c1ccc(Oc2ccc(C3=CCOCC3)cc2Cl)nc1 [Compound I-352] | 240
CC(=O)N[C@@H](C)/C=C/c1ccc(Oc2ccc(C3=CCN(C)CC3)cc2Cl)nc1 [Compound I-353] | 2600
CC(=O)N[C@@H](C)/C=C/c1ccc(Oc2ccc(C3=CC(C)(C)OC(C)(C)C3)cc2Cl)nc1 [Compound I-354] | 170
CC(=O)N[C@@H](C)/C=C/c1ccc(Oc2ccc(C3=CCC4(CC3)CC4)cc2Cl)nc1 [Compound I-355] | 19
CCOc1ccc(NCc2ccc(/C=C/[C@H](C)NC(C)=O)cn2)cc1 [Compound I-356] | 5400
CC(=O)N[C@@H](C)/C=C/c1ccc(Oc2ccc(C(=O)NCC3CC3)cc2Cl)nc1 [Compound I-357] | 440
CC(=O)N[C@@H](C)/C=C/c1ccc(Oc2ccc(Cc3ccccc3)cc2Cl)nc1 [Compound I-358] | 27
CCOc1ccc(Oc2ccc(/C=C(\F)C(C)NC(C)=O)cn2)c(Cl)c1 (stereo not shown) [Compound I-365] | 10
CC(=O)NC(C)/C(F)=C/c1ccc(Oc2ccc(OCC3CC3)cc2Cl)nc1 (stereo not shown) [Compound I-366] | 15
CC(=O)N[C@@H](C)/C=C/c1ccc(Oc2ccc(S(=O)(=O)CC(C)C)cc2Cl)nc1 [Compound I-367] | 140
CC(=O)N[C@@H](C)/C=C/c1ccc(Oc2ccc(C3(C)CC3)cc2Cl)nc1 [Compound I-369] | 24
CCCc1ccc(Oc2ccc(/C=C/[C@H](C)NC(=O)C(=O)OCC)cn2)c(Cl)c1 [Compound I-374] | 780
CCCc1ccc(Oc2ccc(/C=C/[C@H](C)NC(=O)COC(C)=O)cn2)c(Cl)c1 [Compound I-375] | 57
CC(=O)N[C@@H](C)/C=C/c1ccc(Oc2ccc(-c3ccc(C#N)nc3)cc2Cl)nc1 [Compound I-376] | 1100
CC(=O)N[C@@H](C)/C=C/c1ccc(Oc2ccc(-c3ccc(C#N)cc3)c(Cl)c2)nc1 [Compound I-377] | 39

Same assay, conditions: inhibition activity on human ACC2, untitled table (Table 81); read-out: IC50

IC50 [nM] | SMILES
110 | COCCOc1ccc(Oc2ccc(/C=C/[C@H](C)NC(C)=O)cn2)c(Cl)c1 [Compound I-296]
1900 | CC(=O)N[C@@H](C)/C=C/c1ccc(Oc2cncc(OC(C)C)c2)nc1 [Compound I-301]
510 | CCCc1cncc(Oc2ccc(/C=C/[C@H](C)NC(C)=O)cn2)c1 [Compound I-302]
1400 | CC(=O)N[C@@H](C)/C=C/c1ccc(Oc2ccc(OCCO)cc2Cl)nc1 [Compound I-304]
11 | CCCc1ccc(Oc2ccc(/C=C/[C@H](C)NC(C)=O)cn2)cc1Cl [Compound I-305]
24 | CCCc1ccc(Oc2ccc(/C=C/[C@H](C)NC(C)=O)cn2)cc1 [Compound I-306]

Further lines, the compound ahead of its results:

SMILES | IC50 [nM]
CC/C(=C\c1ccc(Oc2cnc(OCC3CC3)cc2Cl)nc1)C(C)NC(C)=O (stereo not shown) [Compound I-295] | 2800
CC(=O)N[C@@H](C)/C=C/c1ccc(Oc2ccc(C3CC3)c(Cl)c2)nc1 [Compound I-298] | 58
CCOc1ccc(Oc2cnc(/C=C/[C@H](C)NC(C)=O)cn2)cc1Cl [Compound I-299] | 38
CC(=O)N[C@@H](C)/C=C/c1ccc(Oc2ccc(OCCOC3CCCCO3)cc2Cl)nc1 (stereo partly shown) [Compound I-303] | 630
CCNC(=O)c1cc(C(=O)N[C@@H](C)/C=C/c2cnn(Cc3ccc(Oc4ccccc4)cc3)c2)ccn1 [Compound I-307] | 48
CCNC(=O)c1cc(C(=O)N[C@@H](C)/C=C/c2cnn(Cc3ccc(OC(F)(F)F)cc3)c2)ccn1 [Compound I-308] | 480
CCNC(=O)c1cc(C(=O)N[C@@H](C)/C=C/c2cnn(Cc3ccc(F)c(C(F)(F)F)c3)c2)ccn1 [Compound I-309] | 2800
CCNC(=O)c1cc(C(=O)N[C@@H](C)/C=C/c2cnn(Cc3ccc(Cl)c(Cl)c3)c2)ccn1 [Compound I-310] | 1300
CCNC(=O)c1cc(C(=O)N[C@@H](C)/C=C/c2cnn(Cc3ccc(C(C)C)cc3)c2)ccn1 [Compound I-312] | 570
CCNC(=O)c1cc(C(=O)N[C@@H](C)/C=C/c2cnn(Cc3ccc(F)c(Cl)c3)c2)ccn1 [Compound I-314] | 960
CCNC(=O)c1cc(C(=O)N[C@@H](C)/C=C/c2cnn(Cc3c(C)cc(C)cc3C)c2)ccn1 [Compound I-315] | 3900
CCNC(=O)c1cc(C(=O)N[C@@H](C)/C=C/c2cnn(Cc3ccc(OC)cc3Cl)c2)ccn1 [Compound I-317] | 350
